In patent US20250320234A1, “LONP1 INHIBITOR COMPOUNDS, USES AND METHODS” (Pretzel Therapeutics, Inc., priority 2021, published 2025):

What follows are molecules tested against LONP1 (NM_004793.4) (Homo sapiens (Human), UniProt P36776) (assay: LONP1 FRET-based protease activity assay with fluorogenic peptide substrate). Settings: LONP1 15 nM, substrate 3 μM, 1 hour at 37° C.; average of a minimum of two repeats.
Type: biochemical
Protocol: The inhibitory activity of the compounds of the present invention against LONP1, 20S proteasome and other proteases are determined by assays known to persons of ordinary skill in the art (see, e.g., Fishovitz, J. et al. “Active-Site-Directed Chemical Tools for Profiling Mitochondrial Lon Protease” ACS Chem. Biol. 6, 781-788 (2011)).
In this Example, LONP1 (NM_004793.4) activity was measured by a FRET-based assay for protease activity using a fluorogenic peptide DabcylYRGIT(2Abu)SORQK(5-FAM) (Cambridge Research Biochemicals) as substrate. LONP1 activity is followed by an increase in fluorescence signal due to the degradation of the peptide. Inhibition of LONP1 protease activity by an inhibitor compound of the disclosure elicits a decrease in the fluorescent signal.
The assay is performed in a 384-well plate (Greiner, cat. #781076) using the following reagents and conditions: substrate (3 μM) was incubated for 1 hour at 37° C. in the presence of LONP1 (15 nM as monomer), 25 mM Tris pH 8.0, 10 mM MgCl2, 0.03 mg/mL […], 0.5 mM DTT, 0.0003% Tween-20, 10 mM NaCl, 0.06 mM ATP and 0.5 mM EGTA in a 15 μL final volume. The LONP1-containing mix (10 μL) was incubated with the test compound for 15 min at 37° C. before adding the peptide-containing mix (5 μL). Solutions were dispensed using a small cassette-Multidrop Combi (Thermo Scientific). Fluorescence was measured using a PheraStar plate reader (BMG Labtech) FI-FRET EX 485 nm Em 520 nm.
Each value is based on an average of a minimum of two repeats.

Sequence of LONP1 (NM_004793.4) (P36776 68-959): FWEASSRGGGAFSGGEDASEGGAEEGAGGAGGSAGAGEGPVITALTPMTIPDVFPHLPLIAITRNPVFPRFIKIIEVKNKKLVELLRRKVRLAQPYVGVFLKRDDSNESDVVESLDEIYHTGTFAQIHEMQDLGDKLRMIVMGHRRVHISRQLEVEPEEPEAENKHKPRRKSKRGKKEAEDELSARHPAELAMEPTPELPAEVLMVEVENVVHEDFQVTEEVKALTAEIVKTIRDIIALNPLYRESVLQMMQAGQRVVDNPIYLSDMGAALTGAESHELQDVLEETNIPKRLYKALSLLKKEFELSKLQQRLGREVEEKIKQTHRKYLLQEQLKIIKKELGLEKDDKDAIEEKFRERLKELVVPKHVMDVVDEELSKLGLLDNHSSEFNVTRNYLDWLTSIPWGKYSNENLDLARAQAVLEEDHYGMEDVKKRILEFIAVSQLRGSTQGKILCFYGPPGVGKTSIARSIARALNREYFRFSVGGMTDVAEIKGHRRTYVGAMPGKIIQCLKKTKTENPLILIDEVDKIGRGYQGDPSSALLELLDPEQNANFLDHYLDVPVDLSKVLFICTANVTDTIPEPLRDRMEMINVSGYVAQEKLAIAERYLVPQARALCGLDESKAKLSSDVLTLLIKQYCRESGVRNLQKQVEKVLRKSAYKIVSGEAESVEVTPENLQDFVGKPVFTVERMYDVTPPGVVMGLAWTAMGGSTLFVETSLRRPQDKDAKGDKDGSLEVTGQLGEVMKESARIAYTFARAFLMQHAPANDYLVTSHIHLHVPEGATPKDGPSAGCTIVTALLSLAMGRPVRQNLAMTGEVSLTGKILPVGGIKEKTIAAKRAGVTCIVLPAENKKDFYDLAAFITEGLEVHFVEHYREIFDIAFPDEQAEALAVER

IC50 [µM]	Structure (SMILES)
0.05 to 0.5	COC[C@@H](NC(=O)c1cnccn1)C(=O)N[C@@H](COCc1ccccc1)B(O)O [Compound 2, ((R)-2-(benzyloxy)-1-((R)-3-methoxy-2-(pyrazine-2-carboxamido)propanamido)ethyl)boronic acid]
0.05 to 0.5	COC[C@@H](NC(=O)c1cnccn1)C(=O)N[C@@H](CCCc1cccc(Cl)c1)B(O)O [Compound 15, ((R)-4-(3-chlorophenyl)-1-((R)-3-methoxy-2-(pyrazine-2-carboxamido)propanamido)butyl)boronic acid]
0.05 to 0.5	COC[C@@H](NC(=O)c1cnccn1)C(=O)N[C@@H](CC1CC1)B(O)O [Compound 18, ((R)-2-cyclopropyl-1-((R)-3-methoxy-2-(pyrazine-2-carboxamido)propanamido)ethyl)boronic acid]
0.05 to 0.5	COC[C@@H](NC(=O)c1cnccn1)C(=O)N[C@@H](CCOc1ccc(Cl)cc1C)B(O)O [Compound 27, ((R)-3-(4-chloro-2-methylphenoxy)-1-((R)-3-methoxy-2-(pyrazine-2-carboxamido)propanamido)propyl)boronic acid]
0.5 to 5	COC[C@@H](NC(=O)c1cnccn1)C(=O)N[C@H](CCOc1ccc(Cl)cc1F)B(O)O [Compound 29, ((S)-3-(4-chloro-2-fluorophenoxy)-1-((R)-3-methoxy-2-(pyrazine-2-carboxamido)propanamido)propyl)boronic acid]
0.05 to 0.5	COC[C@@H](NC(=O)c1cnccn1)C(=O)N[C@@H](CC(C)C)B(O)O [Compound 38, ((R)-1-((R)-3-methoxy-2-(pyrazine-2-carboxamido)propanamido)-3-methylbutyl)boronic acid]
0.5 to 5	COC[C@@H](NC(=O)c1cnccn1)C(=O)N[C@@H](CCCc1ccc(O)cc1)B(O)O [Compound 40, ((R)-4-(4-hydroxyphenyl)-1-((R)-3-methoxy-2-(pyrazine-2-carboxamido)propanamido)butyl)boronic acid]
0.5 to 5	COC[C@@H](NC(=O)c1cnccn1)C(=O)N[C@@H](CCC(=O)c1ccccc1)B(O)O [Compound 53, ((R)-1-((R)-3-methoxy-2-(pyrazine-2-carboxamido)propanamido)-4-oxo-4-phenylbutyl)boronic acid]

Second part, the molecule before the results:

Structure (SMILES)	IC50 [µM]
COC[C@@H](NC(=O)[C@H]1CCC(=O)N1)C(=O)N[C@@H](CCCc1ccccc1)B(O)O [Compound 8, ((R)-1-((R)-3-methoxy-2-((R)-5-oxopyrrolidine-2-carboxamido)propanamido)-4-phenylbutyl)boronic acid]	0.05 to 0.5
COC[C@H](C(=O)N[C@@H](CCCc1ccccc1)B(O)O)N1C(=O)c2ccccc2C1=O [Compound 16, ((R)-1-((R)-2-(1,3-dioxoisoindolin-2-yl)-3-methoxypropanamido)-4-phenylbutyl)boronic acid]	0.05 to 0.5
COC[C@@H](NC(=O)c1cnccn1)C(=O)N[C@@H](CCCc1cccc(OC)c1)B(O)O [Compound 17, ((R)-1-((R)-3-methoxy-2-(pyrazine-2-carboxamido)propanamido)-4-(3-methoxyphenyl)butyl)boronic acid]	0.05 to 0.5
COC[C@H](C(=O)N[C@@H](CCCc1ccccc1)B(O)O)N1C(=O)CCC1=O [Compound 19, ((R)-1-((R)-2-(2,5-dioxopyrrolidin-1-yl)-3-methoxypropanamido)-4-phenylbutyl)boronic acid]	0.5 to 5
COC[C@@H](NC(=O)c1cnccn1)C(=O)N[C@H](CCOc1ccc(Cl)c(F)c1)B(O)O [Compound 26, ((S)-3-(4-chloro-3-fluorophenoxy)-1-((R)-3-methoxy-2-(pyrazine-2-carboxamido)propanamido)propyl)boronic acid]	0.5 to 5
CO[C@@H](C)[C@@H](NC(=O)c1cnccn1)C(=O)N[C@@H](CCOc1ccccc1)B(O)O [Compound 30, ((R)-1-((2R,3S)-3-methoxy-2-(pyrazine-2-carboxamido)butanamido)-3-phenoxypropyl)boronic acid]	0.05 to 0.5
O=C(N[C@H](CO)C(=O)N[C@@H](CCCc1ccc(O)cc1)B(O)O)c1cnccn1 [Compound 39, ((R)-1-((R)-3-hydroxy-2-(pyrazine-2-carboxamido)propanamido)-4-(4-hydroxyphenyl)butyl)boronic acid]	0.5 to 5
COC[C@@H](NC(=O)[C@H]1CCCCO1)C(=O)N[C@@H](CCCc1ccccc1)B(O)O [Compound 41, ((R)-1-((R)-3-methoxy-2-((R)-tetrahydro-2H-pyran-2-carboxamido)propanamido)-4-phenylbutyl)boronic acid]	0.05 to 0.5
